In PMC11073699, “Odorant receptors for floral- and plant-derived volatiles in the yellow fever mosquito, Aedes aegypti (Diptera: Culicidae)” (PLOS ONE, 2024):

What was measured:
[1] = target: T1, AaegOR71 (Aedes aegypti, UniProt A0A3S7SHD4); test: Two-electrode voltage clamp of Xenopus laevis oocytes expressing AaegOR71/Orco (blends, unitary compounds, concentration-response); format: cell-based; conditions: Indoles 2 unitary compounds
T1 sequence (A0A3S7SHD4 1-415): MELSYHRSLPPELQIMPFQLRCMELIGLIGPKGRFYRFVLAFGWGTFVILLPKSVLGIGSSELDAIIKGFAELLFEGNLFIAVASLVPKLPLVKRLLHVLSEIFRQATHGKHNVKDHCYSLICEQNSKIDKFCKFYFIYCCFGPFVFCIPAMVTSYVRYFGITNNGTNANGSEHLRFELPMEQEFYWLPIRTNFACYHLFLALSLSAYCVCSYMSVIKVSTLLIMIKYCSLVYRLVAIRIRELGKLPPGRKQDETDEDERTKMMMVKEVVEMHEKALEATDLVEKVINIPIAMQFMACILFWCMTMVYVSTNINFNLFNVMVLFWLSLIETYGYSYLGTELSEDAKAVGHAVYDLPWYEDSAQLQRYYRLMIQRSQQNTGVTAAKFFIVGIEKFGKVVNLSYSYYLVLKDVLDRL
T1 sequence (Q178U6 1-478 partner): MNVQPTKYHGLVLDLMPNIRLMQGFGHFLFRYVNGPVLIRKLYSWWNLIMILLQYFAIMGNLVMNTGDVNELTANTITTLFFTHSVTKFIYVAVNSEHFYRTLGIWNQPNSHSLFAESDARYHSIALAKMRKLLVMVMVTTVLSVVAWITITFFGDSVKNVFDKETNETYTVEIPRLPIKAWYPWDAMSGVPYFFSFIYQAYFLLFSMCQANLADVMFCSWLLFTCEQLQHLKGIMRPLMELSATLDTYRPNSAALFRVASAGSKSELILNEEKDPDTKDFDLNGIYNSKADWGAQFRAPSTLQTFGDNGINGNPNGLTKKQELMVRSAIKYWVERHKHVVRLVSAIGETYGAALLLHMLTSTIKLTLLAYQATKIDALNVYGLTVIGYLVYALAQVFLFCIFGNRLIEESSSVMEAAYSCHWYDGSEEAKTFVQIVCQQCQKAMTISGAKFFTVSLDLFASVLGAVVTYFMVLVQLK
Source text: (§1) The coding regions of ten AaegOR genes of interest (S3 File) and AaegOrco were synthesized by Twist Bioscience (San Francisco, CA, USA) and cloned into the pENTR plasmid. The Gateway LR directional cloning system (Invitrogen Corp., Carlsbad, CA, USA) was utilized to subclone AaegOR coding regions into the pSP64t-RFA oocyte expression plasmid. Plasmids were purified using the GeneJet Plasmid Miniprep Kit (ThermoFisher Scientific, Waltham, MA, USA). Purified plasmids were sequenced in both directions to confirm coding regions.
(§2) Chemical compounds (S6 File) used in the deorphanization of AaegORs were purchased from Acros Organics (Morris, NJ, USA), Alfa Aesar (Ward Hill, MA, USA), and ThermoFisher Scientific (Waltham, MA, USA) at the highest purity available. Compounds were stored as 1M stocks in 100% DMSO. Serial dilutions of each compound were prepared in 10% DMSO and blended by chemical class.
(§3) pSP64t-RFA: AaegOR clones were linearized using Xbal, and cRNAs were synthesized using the mMESSAGE mMACHINE ® SP6 kit (Life Technologies, Carlsbad, CA, USA). Xenopus laevis stage V-VII oocytes purchased from Xenopus1 (Dexter, MI, USA) were stored at 18°C in Incubation medium (ND96 96 with 5% dialyzed horse serum, 50μg/mL gentamycin, 100μg/mL streptomycin, 100μg/mL penicillin, and 550μg/mL sodium pyruvate). 30nL of cRNA was injected into multiple oocytes using a microinjection syringe pump (World Precision Instruments, Sarasota, FL, USA) maintained at 18°C for 48–72 hrs. Odorant blends were perfused across individual oocytes for 10–15 seconds, held at a resting membrane potential of -80 mV using an OC-725C oocyte clamp (Warner Instruments, LLC, Hamden, CT, USA). Induced currents were measured indirectly using the two-electrode voltage clamp technique (TEVC). Following each stimulus, currents were allowed to return to baseline before further stimulation. Data was captured using the Digidata 1550 B digitizer and PClamp10 software (Molecular Devices, San Jose, CA, USA). Concentration-response curves were generated by perfusing unitary odorants over oocytes at increasing concentrations from [10^-3M] to [10^-9M]. Data were analyzed using GraphPad Prism 8 (GraphPad Software Inc., La Jolla, CA, USA). At least two biological replicates were conducted at each concentration and for each compound. Data for at least seven oocytes responding to each compound was analyzed (S7 File).

[2] = target: T2, AaegOR6 (Aedes aegypti, UniProt A0A1S4G757); test: Two-electrode voltage clamp of Xenopus laevis oocytes expressing AaegOR6/Orco (blends, unitary compounds, concentration-response); format: cell-based; conditions: Indoles 2 unitary compounds
T2 sequence (A0A1S4G757 1-398): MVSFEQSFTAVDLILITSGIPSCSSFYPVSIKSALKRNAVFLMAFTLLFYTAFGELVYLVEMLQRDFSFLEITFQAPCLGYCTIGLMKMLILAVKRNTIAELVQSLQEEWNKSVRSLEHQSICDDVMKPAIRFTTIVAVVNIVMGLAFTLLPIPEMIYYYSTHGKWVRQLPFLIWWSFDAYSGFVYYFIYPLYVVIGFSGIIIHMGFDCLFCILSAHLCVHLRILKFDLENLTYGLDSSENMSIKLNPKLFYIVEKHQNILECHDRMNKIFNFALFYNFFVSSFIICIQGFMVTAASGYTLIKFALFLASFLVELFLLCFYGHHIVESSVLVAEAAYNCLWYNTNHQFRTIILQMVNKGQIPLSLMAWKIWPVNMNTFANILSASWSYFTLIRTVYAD
T2 sequence (Q178U6 1-478 partner): T1 sequence (Q178U6 1-478 partner)
Source text: as §1, §2, §3

## c1ccc2nccnc2c1 [Quinoxaline]
[1]
  Raw Data (Response in nA) Oocyte 1: 0 nA
  Raw Data (Response in nA) Oocyte 2: 620 nA
  Raw Data (Response in nA) Oocyte 3: 85 nA
  Raw Data (Response in nA) Oocyte 4: 370 nA
  Raw Data (Response in nA) Oocyte 5: 60 nA
  Raw Data (Response in nA) Oocyte 6: 200 nA
  Raw Data (Response in nA) Oocyte 7: 80 nA
  Raw Data (Response in nA) Oocyte 8: 70 nA
[2]
  Raw data (Responses in nA) Oocyte 1: 0.0 nA
  Raw data (Responses in nA) Oocyte 2: 0.0 nA
  Raw data (Responses in nA) Oocyte 3: 0.0 nA
  Raw data (Responses in nA) Oocyte 4: 0.0 nA
  Raw data (Responses in nA) Oocyte 5: 0.0 nA
  Raw data (Responses in nA) Oocyte 6: 0.0 nA
  Raw data (Responses in nA) Oocyte 7: 0.0 nA
  Raw data (Responses in nA) Oocyte 8: 0.0 nA

## Oc1cccc2[nH]ccc12 [4-Hydroxyindole]
[1]
  Raw Data (Response in nA) Oocyte 1: 20 nA
  Raw Data (Response in nA) Oocyte 2: 30 nA
  Raw Data (Response in nA) Oocyte 3: 0 nA
  Raw Data (Response in nA) Oocyte 4: 30 nA
  Raw Data (Response in nA) Oocyte 5: 0 nA
  Raw Data (Response in nA) Oocyte 6: 30 nA
  Raw Data (Response in nA) Oocyte 7: 30 nA
  Raw Data (Response in nA) Oocyte 8: 10 nA
[2]
  Raw data (Responses in nA) Oocyte 1: 0.0 nA
  Raw data (Responses in nA) Oocyte 2: 0.0 nA
  Raw data (Responses in nA) Oocyte 3: 5.0 nA
  Raw data (Responses in nA) Oocyte 4: 0.0 nA
  Raw data (Responses in nA) Oocyte 5: 0.0 nA
  Raw data (Responses in nA) Oocyte 6: 0.0 nA
  Raw data (Responses in nA) Oocyte 7: 0.0 nA
  Raw data (Responses in nA) Oocyte 8: 0.0 nA

## O=C(O)Cc1c[nH]c2ccccc12 [1H-Indole-3-acetic acid]
[1]
  Raw Data (Response in nA) Oocyte 1: 0 nA
  Raw Data (Response in nA) Oocyte 2: 20 nA
  Raw Data (Response in nA) Oocyte 3: 0 nA
  Raw Data (Response in nA) Oocyte 4: 15 nA
  Raw Data (Response in nA) Oocyte 5: 20 nA
  Raw Data (Response in nA) Oocyte 6: 60 nA
  Raw Data (Response in nA) Oocyte 7: 15 nA
  Raw Data (Response in nA) Oocyte 8: 60 nA
[2]
  Raw data (Responses in nA) Oocyte 1: 10.0 nA
  Raw data (Responses in nA) Oocyte 2: 10.0 nA
  Raw data (Responses in nA) Oocyte 3: 10.0 nA
  Raw data (Responses in nA) Oocyte 4: 0.0 nA
  Raw data (Responses in nA) Oocyte 5: 10.0 nA
  Raw data (Responses in nA) Oocyte 6: 0.0 nA
  Raw data (Responses in nA) Oocyte 7: 0.0 nA
  Raw data (Responses in nA) Oocyte 8: 0.0 nA

## Nc1cccc2cnccc12 [5-Aminoisoquinoline]
[1]
  Raw Data (Response in nA) Oocyte 1: 130 nA
  Raw Data (Response in nA) Oocyte 2: 200 nA
  Raw Data (Response in nA) Oocyte 3: 40 nA
  Raw Data (Response in nA) Oocyte 4: 40 nA
  Raw Data (Response in nA) Oocyte 5: 0 nA
  Raw Data (Response in nA) Oocyte 6: 10 nA
  Raw Data (Response in nA) Oocyte 7: 0 nA
  Raw Data (Response in nA) Oocyte 8: 10 nA
[2]
  Raw data (Responses in nA) Oocyte 1: 0.0 nA
  Raw data (Responses in nA) Oocyte 2: 0.0 nA
  Raw data (Responses in nA) Oocyte 3: 0.0 nA
  Raw data (Responses in nA) Oocyte 4: 0.0 nA
  Raw data (Responses in nA) Oocyte 5: 0.0 nA
  Raw data (Responses in nA) Oocyte 6: 0.0 nA
  Raw data (Responses in nA) Oocyte 7: 0.0 nA
  Raw data (Responses in nA) Oocyte 8: 0.0 nA

## c1ccc2ncccc2c1 [Quinoline]
[1]
  Raw Data (Response in nA) Oocyte 1: 900 nA
  Raw Data (Response in nA) Oocyte 2: 2210 nA
  Raw Data (Response in nA) Oocyte 3: 330 nA
  Raw Data (Response in nA) Oocyte 4: 1050 nA
  Raw Data (Response in nA) Oocyte 5: 300 nA
  Raw Data (Response in nA) Oocyte 6: 760 nA
  Raw Data (Response in nA) Oocyte 7: 210 nA
  Raw Data (Response in nA) Oocyte 8: 250 nA
[2]
  Raw data (Responses in nA) Oocyte 1: 0.0 nA
  Raw data (Responses in nA) Oocyte 2: 0.0 nA
  Raw data (Responses in nA) Oocyte 3: 0.0 nA
  Raw data (Responses in nA) Oocyte 4: 0.0 nA
  Raw data (Responses in nA) Oocyte 5: 0.0 nA
  Raw data (Responses in nA) Oocyte 6: 10.0 nA
  Raw data (Responses in nA) Oocyte 7: 10.0 nA
  Raw data (Responses in nA) Oocyte 8: 0.0 nA

## c1ccc2ncncc2c1 [Quinazoline]
[1]
  Raw Data (Response in nA) Oocyte 1: 70 nA
  Raw Data (Response in nA) Oocyte 2: 440 nA
  Raw Data (Response in nA) Oocyte 3: 45 nA
  Raw Data (Response in nA) Oocyte 4: 250 nA
  Raw Data (Response in nA) Oocyte 5: 40 nA
  Raw Data (Response in nA) Oocyte 6: 150 nA
  Raw Data (Response in nA) Oocyte 7: 50 nA
  Raw Data (Response in nA) Oocyte 8: 40 nA
[2]
  Raw data (Responses in nA) Oocyte 1: 0.0 nA
  Raw data (Responses in nA) Oocyte 2: 0.0 nA
  Raw data (Responses in nA) Oocyte 3: 0.0 nA
  Raw data (Responses in nA) Oocyte 4: 0.0 nA
  Raw data (Responses in nA) Oocyte 5: 0.0 nA
  Raw data (Responses in nA) Oocyte 6: 10.0 nA
  Raw data (Responses in nA) Oocyte 7: 0.0 nA
  Raw data (Responses in nA) Oocyte 8: 0.0 nA
